In US20090156563A1, “Glucan Compositions” (priority 2005, published 2009):

System: skin of the forearm
Test: Determination of skin roughness (DIN 4768ff, profilometry of silicone skin impressions)
Assay type: in vivo, human
Details: 10% glyceryl stearate, 8 hours after application
Description: An aqueous lotion for the treatment of skin roughness is formulated from an aqueous emulsion containing 10% by weight of glyceryl stearate and either 0.005% or 0.05% or 0.5% by weight of β-1,3-scleroglucan (using formulations A-D described further above).
The determination of skin roughness is conducted according to German standard DIN 4768ff. The roughness of the skin is determined by taking silicone-based skin impressions and then measuring the surface profile of the impressions, using computer-aided profilometry. The skin roughness is calculated from the multiple measuring points (100 points per square millimeter). The number of volunteers used is 10. The determination of skin roughness is conducted both prior to application of the test lotion and 8 hours after application of the test lotion. The skin of the forearm is used as the skin test area. For the purpose of comparison, a control experiment is conducted using a placebo containing none of the scleroglucan formulations.

β-1,3-scleroglucan
reduction of skin roughness (relative to untreated skin) (lotion with 0.005% by weight β-1,3-scleroglucan (formulations A-D)): good reduction | reduction of skin roughness (relative to untreated skin) (lotion with 0.05% by weight β-1,3-scleroglucan (formulations A-D)): good reduction
